This note sets out measurements from ChEMBL document CHEMBL1146391, “Antifungal diterpenoid alkaloids from Delphinium denudatum” (1997).

One assay has as its system Scedosporium boydii. Kind of assay: Antifungal activity against Allescheria boydii after 7 days by agar tube dilution method. The format is functional. The following applies: 168 h.
A further assay relates to Pleurotus ostreatus. Kind of assay: Antifungal activity against Pleurotus ostreatus after 7 days by agar tube dilution method. The format is functional. The following applies: 168 h.
For another assay, the system named is Aspergillus niger. Kind of assay: Antifungal activity against Aspergillus niger after 7 days by agar tube dilution method. The format is functional. The following applies: 168 h.
The subject of another assay is Epidermophyton floccosum. The experiment in a line: Antifungal activity against Epidermophyton floccosum after 7 days by agar tube dilution method. The conditions noted are these: 168 h. The format is functional.
Assay [1] can be described thus: Antifungal activity against Dutarium rotatum after 7 days by agar tube dilution method. In kind it is functional.
A further assay relates to Nigrospora oryzae. Kind of assay: Antifungal activity against Nigrospora oryzae after 7 days by agar tube dilution method. In kind it is functional, organism-based.
In another assay the test system is Stachybotrys chartarum. The experiment in a line: Antifungal activity against Stachybotrys atra after 7 days by agar tube dilution method. In kind it is functional, organism-based.

Converted amounts (≈) assume the structure as drawn. The source made the active and inactive calls. The rule behind the calls is not given here.

The MIC is the least concentration at which growth counts as inhibited. Lower therefore signals a more susceptible organism.

Regarding `CCN1C[C@]2(C)CC[C@H](OC)[C@@]34[C@@H]5C[C@@H]6CC[C@](OC(C)=O)([C@@H](C[C@H]23)[C@@H]14)[C@H]5C(=O)O6`, the MIC worked out at 100 µg/mL (≈ 239 µM) in the assay with Scedosporium boydii, 150 µg/mL (≈ 359 µM) with Pleurotus ostreatus, 200 µg/mL (≈ 479 µM) in the assay with Aspergillus niger and 250 µg/mL (≈ 599 µM) in the assay with Epidermophyton floccosum.

For `C=C1C[C@@]23C(=O)C(=O)[C@@H]4[C@@]5(C)C[C@H](OC(C)=O)C[C@@]46[C@@H]2C[C@@H]1C(=O)[C@@H]3[C@H]6N(C)C5` [VILMORRIANONE], the minimal inhibitory concentration (MIC) in the assay on Scedosporium boydii came out at 150 µg/mL (≈ 377 µM); in the assay with Pleurotus ostreatus, 175 µg/mL (≈ 440 µM); in the assay on Aspergillus niger, 100 µg/mL (≈ 252 µM); in the assay on Epidermophyton floccosum, 225 µg/mL (≈ 566 µM).

In the case of `C=C1C[C@@]23CC(=O)[C@@H]4[C@@]5(C)C[C@H](OC(C)=O)C[C@@]46[C@@H]2C[C@@H]1C(=O)[C@@H]3[C@H]6N(C)C5` [PANICUTINE], the result (in assay [1]; with Nigrospora oryzae; with Stachybotrys chartarum) was Active. Also, the minimal inhibitory concentration (MIC) worked out at 75 µg/mL (≈ 196 µM) against Scedosporium boydii, 125 µg/mL (≈ 326 µM) against Pleurotus ostreatus, 125 µg/mL (≈ 326 µM) against Aspergillus niger and 200 µg/mL (≈ 522 µM) against Epidermophyton floccosum.
